Literature values in US10028918B2, “Nanoparticle delivery vehicle for S-nitroso-N-acetyl cysteine and uses thereof” (ALBERT EINSTEIN COLLEGE OF MEDICINE, INC., priority 2012, dated 2018).

Test system: rats
Settings: normal and acute hypertension induced rats

For CC(=O)N[C@@H](CSN=O)C(=O)O [NAC-SNO, S-nitroso-N-acetyl cysteine], the “Duration of vascular effect” value is listed as roughly 9 min.
